Measurements as given in BindingDB's records for doi:10.1016/j.bmcl.2009.01.098 (Glaxosmithkline, 2009).

target: Muscarinic acetylcholine receptor M3 (Homo sapiens, UniProt P20309); experiment: Antagonist activity at human recombinant muscarinic M3 receptor expressed in CHO cells assessed as inhibition of acetylcholine-induced calcium mobilization by FLIPR based single concentration kinetic assay
Sequence (P20309 whole entry): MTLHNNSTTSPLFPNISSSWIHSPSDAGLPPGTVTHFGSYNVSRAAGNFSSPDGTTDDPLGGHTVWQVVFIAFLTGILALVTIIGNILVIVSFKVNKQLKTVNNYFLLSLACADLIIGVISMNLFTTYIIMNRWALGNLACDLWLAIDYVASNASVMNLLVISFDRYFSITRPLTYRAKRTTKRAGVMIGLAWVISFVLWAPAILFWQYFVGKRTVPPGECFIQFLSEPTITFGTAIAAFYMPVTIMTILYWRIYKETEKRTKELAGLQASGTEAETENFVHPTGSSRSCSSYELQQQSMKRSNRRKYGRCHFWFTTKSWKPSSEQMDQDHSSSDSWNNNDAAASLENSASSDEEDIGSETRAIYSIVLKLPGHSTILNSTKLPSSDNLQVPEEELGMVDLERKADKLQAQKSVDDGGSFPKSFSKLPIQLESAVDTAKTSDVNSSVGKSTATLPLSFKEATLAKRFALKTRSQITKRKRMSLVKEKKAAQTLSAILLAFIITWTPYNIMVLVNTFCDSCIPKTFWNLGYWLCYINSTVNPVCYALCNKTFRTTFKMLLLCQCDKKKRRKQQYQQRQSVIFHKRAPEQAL

Row | SMILES | Kd [nM]
1 | CC1CN(Cc2cccc(-c3cc(CNC(=O)c4cccc(CN5CCN(C)CC5)c4)ccc3F)c2)CCN1 (stereo not drawn) | 0.0316
2 | CC1CN(Cc2cccc(-c3cc(CNC(=O)c4cccc(CN5CCN(CCCO)CC5)c4)ccc3F)c2)CCN1 (stereo not drawn) | 0.0631
3 | CC1CN(Cc2cccc(-c3cc(CNC(=O)c4cccc(CN5CCCN(C)CC5)c4)ccc3F)c2)CCN1 (stereo not drawn) | 0.251
4 | CC1CN(Cc2cccc(-c3cc(CNC(=O)c4cccc(CN(C)CCCN(C)C)c4)ccc3F)c2)CCN1 (stereo not drawn) | 0.2

The remaining molecules from weak to strong by Kd, led by results:

Row | Kd [nM] | SMILES
5 | 3.16 | CC1CN(Cc2cccc(-c3cc(CNC(=O)c4cccc(CN(C)C)c4)ccc3F)c2)CCN1 (stereo not drawn)
6 | 0.631 | CC1CN(Cc2cccc(-c3cc(CNC(=O)c4cccc(CN5CCCCC5)c4)ccc3F)c2)CCN1 (stereo not drawn)
7 | 0.126 | CC1CN(Cc2cccc(-c3cc(CNC(=O)c4cccc(CN5CCOCC5)c4)ccc3F)c2)CCN1 (stereo not drawn)
8 | 0.0794 | CC1CN(Cc2cccc(-c3cc(CNC(=O)c4cccc(CN5CCN(C=O)CC5)c4)ccc3F)c2)CCN1 (stereo not drawn)
